Counter-ions that a name gives are not always drawn.
Tests used:
[1] = literature pilot study; cited from earlier work
[2] = cited patent; cited from earlier work

Work on `Cn1cc(C(=O)c2ccc(Cl)cc2)cc1C(=O)CN1CCCC1` (as salt: hydrochloride) yielded a melting point of 265 to 267 °C.
For `Cn1cc(C(=O)CN)cc1C(=O)c1ccc(Cl)cc1` (as salt: hydrochloride), the melting point was 290 °C (dec.).
In the case of `Cn1cc(C(=O)c2ccc(Cl)cc2)cc1C(=O)CN1CCOCC1` (as salt: hydrochloride) [13-1, 1-[4-(4-Chlorobenzoyl)-1-methyl-1H-pyrrol-2-yl]-2-(1-morpholino)-ethanone hydrochloride], the melting point was 264 to 267 °C.
With `Cn1cc(C(=O)c2ccc(Cl)cc2)cc1C(=O)CN1CCCCC1` [Example 12, 1-[4-(4-Chlorobenzoyl)-1-methyl-1H-pyrrol-2-yl]-2-(1-piperidinyl)-ethanone] the melting point was 129 to 130 °C.
For `NCC1(CC(=O)O)CCCCC1` [Gabapentin], the “effect on brush-induced and cold allodynia” value [1] is given as “significantly effective”, the “effect on detection and pain thresholds to static mechanical and hot stimuli” value [1] is given as “no effect” and the reducing paroxysmal pain [1] is given as “particularly effective”. For the same compound, the “relief of ongoing spontaneous pain” value [1] was “moderate and statistically significant relief”.
In the case of `CC1(C)O[C@@H]2[C@@H](CO[C@@]3(COS(N)(=O)=O)OC(C)(C)O[C@@H]23)O1` [topiramate], the “efficacy in an animal model of neuropathic pain” value [2] is given as “evidence of pharmacological activity”.

Source: patent US6369228B2, “Aroyl aminoacyl pyrroles for use in the treatment of neuropathic pain” (Ortho-McNeil Pharmaceutical, Inc., priority 1999, dated 2002)
